Data: article PMC12645137 (Current Neuropharmacology, 2025)

Test system: mice
Test: Acute toxicity study
Format: in vivo, albino mice
Settings: i.p., doses 25 to 1000 mg/kg
Protocol: In our study, experimental animals (albino mice male/female weighing 18-32 gm) were obtained from the National Institute of Health (NIH), Islamabad, Pakistan. These animals were provided adequate food, water, and light (ad libitum). Appropriate conditions were maintained as per laboratory specifications, including a temperature of 22°C a dark and light cycle of 12 hours each. As per the Animals Scientific Procedure Act 1986, UK, the in-vivo studies were performed on experimental animals from 9:00 am to 4:00 pm. The departmental committee of research ethics of the Pharmacy Department, University of Malakand, approved the study protocol via reference no DREC/20210622/50.
Acute toxicity was carried out for the safety profile assessment of our test compounds. For this purpose, the mice were grouped into six different groups (n = 6). The test compound was given to each mouse at different doses (25 to 1000 mg/kg) via the intraperitoneal (i.p) route. Changes in behaviour such as convulsions, hyperactivity, writhing, sedation, righting reflex, aggressiveness, grooming, ataxia, motor activity (increased or decreased), respiratory arrest, and mortality were observed after the administration of sample solution for the first two hours and then again for 24 hours.

In the case of `COc1ccc(C/N=C(/C)[C@H]2CC[C@H]3[C@@H]4CCC5=CC(=O)CC[C@]5(C)[C@H]4CC[C@]23C)cc1` [AN1, (8S,9S,10R,13S,14S)-17-((Z)-1-((4-methoxybenzyl)imino)ethyl)-10,13-dimethyl-1,2,6,7,8,9,10,11,12,13,14,15,16,17-tetradecahydro-3H-cyc-lopenta[a]phenanthren-3-one], the “toxic dose (mortality observed)” value is reported as ≥ 1000 mg/kg and the “dose safe, without toxic effects, mortality or unusual behavioral response” value (observed 2 h and 24 h) is reported as ≤ 500 mg/kg.
